The structures appear in SMILES notation. pIC50: −log10 of the molar value. The source made the active and inactive calls. No cut-off for these calls is given here.

The species named for one assay is Homo sapiens. Put plainly: Binding affinity towards recombinant AVIL (unknown origin) measured by thermal shift assay.
The subject of a further assay is U-87MG ATCC. Kind of assay: Downregulation of LIN28B expression in human U87 cells measured by qRT-PCR assay. In kind it is functional, cell-based. A general note: Quantitative PCR measures a nucleic acid by following its amplification.
Assay [1] relates to SJRH30. Put plainly: Antiproliferative activity against human Rh30 cells at 20 uM assessed as decrease in cell number measured by crystal violet staining method relative to control. Type of assay: functional, cell-based.
The test system of assay [2] is RD. Kind of assay: Antiproliferative activity against human RD cells. In kind it is functional, cell-based.
The subject of assay [3] is SJRH30. Kind of assay: Antiproliferative activity against human Rh30 cells. Type of assay: functional, cell-based.
Assay [4] relates to Mesenchymal stem cells. Kind of assay: Antiproliferative activity against human mesenchymal stem cells at 20 uM assessed as decrease in cell number measured by crystal violet staining method relative to control. In kind it is functional, cell-based.
Assay [5] has as its system Mesenchymal stem cells. Kind of assay: Antiproliferative activity against human mesenchymal stem cells. Type of assay: functional, cell-based.
Assay [6] relates to RD. Put plainly: Antiproliferative activity against human RD cells at 20 uM assessed as decrease in cell number measured by crystal violet staining method relative to control. In kind it is functional, cell-based.
A further assay deals with U-87 MG. Put plainly: Antiproliferative activity against human U87 cells. Type of assay: functional, cell-based, U-87MG ATCC.
A short description of assay [7]: Antiproliferative activity against human astrocytes. In kind it is functional, cell-based. Conditions: Astrocyte.

With `CN(Cc1ccc(Oc2ccccc2)cc1)C(=O)[C@@H]1C[C@@H](O)CN1`, the outcome in the assay filed under Homo sapiens and in the assay on U-87MG ATCC was Active.

`c1ccc(CCC2CCN(CC3[C@H]4CNC[C@@H]34)CC2)cc1` (some centres undefined): the outcome in the assay listed under Homo sapiens and in the assay with U-87MG ATCC was Active.

In the case of `Nc1nccc(N2CCCC(CO)(CCCc3ccccc3)C2)n1` (centres undefined), the result in the assay on SJRH30 [1], in the assay listed under Homo sapiens, in the assay with RD [2], with SJRH30 [3], in the assay with U-87MG ATCC and in the assay with RD [6] was Active. In addition, the result in the assay on Mesenchymal stem cells [4] and with Mesenchymal stem cells [5] was inactive.

Regarding `Cc1cc(N2CCCC(CO)(CCCc3ccccc3)C2)nc(N)n1` (centres undefined), the values for the pIC50 (with U-87 MG; in assay [7]) were 5.10 and 5.30, respectively.
